Values quoted from earlier work in patent US20050000529A1, “Method and compositions for imparting cooling effect to tobacco products” (priority 2001, published 2005).
“Also recorded” adds a separate entry of the source.

What was measured:
[1] = tap water, triangle test
[2] = tap water, triangle test; remark: listed apart in the source
[3] = taste testing; comparison with related compounds

| SMILES | Cooling Threshold [1] [mg/kg] | Odor Threshold [2] [mg/kg] | cooling activity (in words) [3] |
| --- | --- | --- | --- |
| CC1=C(N2CCCC2)C(=O)C(C)O1 (stereo not drawn) [Compound 24, 2,5-dimethyl-4-(l-pyrrolidinyl)-3-(2H)-furanone] | 100.0 to 140.0 | 30.0 to 60.0 | – |
| CC1CC=C(N2CCCCC2)C1=O (centres unmarked) [Compound 5, 5-methyl-2-(1-piperidinyl)-2-cyclopenten-1-one] | 16.0 to 24.0 | 12.0 to 20.0 | – |
| CC1=C(N2CCCC2)CCC1=O [Compound 14, 2-methyl-3-(1-pyrrolidinyl)-2-cyclopenten-1-one] | – | 92.0 to 138.0 | loss of cooling activity |
| CCN(CC)C1=CCC(C)C1=O (centres unmarked) [Compound 6, 5-methyl-2-diethylamino-2-cyclopenten-1-one] | 12.0 to 20.0 | 6.0 to 9.0 | does not substantially decrease the cooling activity |
| CCCCCCN(CCCCCC)C1=CCC(C)C1=O (centres unmarked) [Compound 8, 5-methyl-2-dihexylamino-2-cyclopenten-1-one] | – | – | completely diminishes the cooling activity |
| CCC1CC=C(N2CCCC2)C1=O (centres unmarked) [Compound 9, 5-ethyl-2-(1-pyrrolidinyl)-2-cyclopenten-1-one] | 26.7 to 42.5 | 13.4 to 22.4 | significant increase in cooling activity |
| CC1=C(N2CCCC2)C(=O)CCC1 [Compound 16, 3-methyl-2-(1-pyrrolidinyl)-2-cyclohexen-1-one] | 90.5 to 150.8 | 45.2 to 75.4 | – |
| O=C1CCCC=C1N1CCCC1 [Compound 15, 2-(1-pyrrolidinyl)-2-cyclohexen-1-one] | 495.0 to 830.0 | 62.0 to 106.0 | significantly decreases cooling activity |
| CC1=C(N2CCC[C@H]2C(=O)O)C(=O)CC1 [Compound 22, (S)-3-methyl-2-(2-carboxy-l-pyrrolidinyl)-2-cyclopenten-1-one] | 490.0 to 735.0 | – | substantially decreases the cooling effect |
| CCN(CC)C1=C(C)CCC1=O [Compound 4, 3-methyl-2-diethylamino-2-cyclopenten-1-one] | 30.0 to 50.0 | 2.0 to 3.0 | – |
| CC1CC=C(N2CCOCC2)C1=O (centres unmarked) [Compound 20, 5-methyl-2-(1-morpholino)-2-cyclopenten-1-one] | 467.0 to 700.8 | 935.0 to 1558.0 | substantially decreases the cooling effect |
| CC1=C(N2CCCC2)C(=O)CC1 [Compound 1, 3-methyl-2-(1-pyrrolidinyl)-2-cyclopenten-1-one] | 29.0 to 43.5 | 43.5 to 72.5 | long lasting sensation of coolness; also recorded: high degree of cooling effect |
| CC1=C(N2CCCC2)C(=O)C(C)C1 (centres unmarked) [Compound 11, 3,5-dimethyl-2-(1-pyrrolidinyl)-2-cyclopenten-1-one] | 32.5 to 53.5 | 16.0 to 27.0 | small effect on cooling activity |
| CC1C=C(N2CCCC2)C(=O)C1C (centres unmarked) [Compound 10, (E)-4,5-dimethyl-2-(1-pyrrolidinyl)-2-cyclopenten-1-one] | 68.0 to 113.3 | 136.0 to 226.6 | significant increase in cooling activity |
| CC1CC(C)(C)C=C(N2CCCC2)C1=O (centres unmarked) [Compound 19, 4,4,6-trimethyl-2-(1-pyrrolidinyl)-2-cyclohexen-1-one] | 2213.0 to 3688.0 | 553.0 to 922.0 | significantly decreases cooling activity |
| CC1=C(N2CCCC2)C(=O)OC1C (centres unmarked) [Compound 26, 4,5-dimethyl-3-(1-pyrrolidinyl)-2-(5H)-furanone] | 2.0 to 4.0 | 32.0 to 64.0 | dramatically increases cooling activity |
| CC1=C(N2CCCC2)C(=O)OC1 [Compound 25, 4-methyl-3-(1-pyrrolidinyl)-2-(5H)-furanone] | 0.05 to 0.06 | – | dramatically increases cooling activity; also recorded: high degree of cooling effect |
| CC1=C(N2CCCCC2)C(=O)CC1 [Compound 3, 3-methyl-2-(1-piperidinyl)-2-cyclopenten-1-one] | 60.0 to 100.0 | 80.0 to 120.0 | – |
| CC1CCC=C(N2CCCC2)C1=O (centres unmarked) [Compound 18, 6-methyl-2-(1-pyrrolidinyl)-2-cyclohexen-1-one] | 26.9 to 44.8 | 3.4 to 5.6 | – |
| CCCCN(CCCC)C1=CCC(C)C1=O (centres unmarked) [Compound 7, 5-methyl-2-dibutylamino-2-cyclopenten-1-one] | 48.4 to 67.8 | 2.4 to 2.8 | drastically decreases the cooling activity |
| CC1=C(N2CCCC2)C(=O)CC(C)(C)C1 [Compound 17, 3,5,5-trimethyl-2-(1-pyrrolidinyl)-2-cyclohexen-1-one] | 1605.0 to 2675.0 | 50.2 to 83.6 | – |
| O=C1C=C(N2CCCC2)CC1 [Compound 13, 3-(1-pyrrolidinyl)-2-cyclopenten-1-one] | – | 234.0 to 390.0 | loss of cooling activity |
| CC1=C(N2CCCC2)C(=O)CO1 [Compound 23, 5-methyl-4-(1-pyrrolidinyl)-3-(2H)-furanone] | 1.5 to 3.0 | – | strong increase in cooling activity; also recorded: high degree of cooling effect |
| COC(=O)C1CCCN1C1=CC[C@H](C)C1=O (stereo partly drawn) [Compound 21, (S)-5-methyl-2-(2-methoxycarbonyl-1-pyrrolidinyl)-2-cyclopenten-1-one] | 112.0 to 188.0 | – | substantially decreases the cooling effect |
| CC1=C(N2CCCC2)C(=O)CC1C (centres unmarked) [Compound 12, 3,4-dimethyl-2-(1-pyrrolidinyl)-2-cyclopenten-1-one] | 51.3 to 85.5 | 25.7 to 42.8 | – |
| CC1CC=C(N2CCCC2)C1=O (centres unmarked) [Compound 2, 5-methyl-2-(1-pyrrolidinyl)-2-cyclopenten-1-one] | 4.5 to 9.0 | 2.6 to 5.2 | long lasting sensation of coolness; also recorded: high degree of cooling effect |
